Key:
Format in all cases: in vivo
[1] = tested on: sciatic nerve of rats; assay: Third local anesthetic experiment of rats: hydrogels embedded near the sciatic nerve, mechanical withdrawal threshold (VFH)
Procedure: (§1) Rats were placed in transparent observation cages with a bottom of smooth metal sieve plate, and the corrected von frey filament was used to stimulate the foot lateral skin of rats (innervated region of sciatic nerve) from down to up. […] For each stimulation, slightly bent of filament was used as a standard, or rats moved aside this side of limbs. Otherwise, once the stimulation time reached 3 s, operator stopped stimulating. Three tests were carried out for each time point, and the interval between two tests was 5 min, to avoid sensibilization.
(§2) If the mechanical withdrawal threshold value was more than 60 g, the nerve blocking was considered as effective.
(§3) 25 mmol/L transparent uniform hydrogels of products obtained in Examples 7-10 and 13-32 were prepared under sterile conditions, as the method of Example 45, and kept for use.
(§4) Above hydrogels, positive control lidocaine, and negative control normal saline were respectively administrated to 35 groups of test rats fully adapted to experiment environment, with five rats for each group. The administration dosage is: the concentration of lidocaine group being 2% aqueous solution (84 mmol/L). The injection volume of each rat receiving drugs or the control was […], and the control was injected to near the sciatic nerve of rats by guidance of nerve locator; by surgery, the gels were embedded near the sciatic nerve of experimental rats after general anesthesia using sevoflurane. Specific procedures and the evaluation criterion for local anesthetic effect were same as mentioned in Example 60.

[2] = tested on: sciatic nerve of rats; assay: First local anesthetic experiment of rats: blocking of sciatic nerve, mechanical withdrawal threshold (VFH, von Frey filaments)
Procedure: (§5) Selected above micelle, positive control lidocaine, and negative control normal saline were respectively administrated to 28 groups of test rats fully adapted to experiment environment, with five rats for each group. The administration dosage is: the concentration of lidocaine group being 2% aqueous solution (84 mmol/L), and the concentration of tested drug being 5 mmol/L. The injection volume of each rat receiving drugs or the control was 0.2 ml, and the drug or the control was injected to close to sciatic nerve of rats by guidance of nerve locator.
(§6) The tested rats were placed on bench board and allowed to inhale 5% isoflurane. After body-righting reflex abolition, rats are allowed to continue inhaling 1.5% isoflurane, to keep anesthesia. Keeping left-lateral position, their corresponding injection area sacrococygeal region was shaved, then routine sterilization and draping were performed. Two osseous anatomic landmarks greater trochanter of femur and tuber is chiadicum were laid hands, and the middle point of this line was the needle insertion position. If skin was taut, 1 ml injector was inserted along perpendicular of skin. When needlepoint reached hucklebone, the insertion was finished. […] Needle was lifted, and is oflurane was shut off. Animals were placed in observation cage until they naturally awakened.
as §1, §2

[3] = tested on: sciatic nerve of rats; assay: Third local anesthetic experiment of rats: hydrogels embedded near the sciatic nerve, motor function (PET)
From the text: (§7) The hindlimb postural extensor thrust (PET) was used for evaluation. Rats were lifted vertically and their hindlimbs of injection side stepped on the top of electronic balance. At this time, the postural extensor thrust was shown as the value of balance. When limbs were completely paralytic, the digital reading was the weight of limbs, about 20 g. If the test value was more than half of the difference between the baseline and the limbs weight, the motor function was taken as recovery; If less than or equal to half of the difference, the motor function was taken as deprivation.
(§8) The interval between completion of injection and the time point that the motor function was firstly deprivated was the time of effective motor blocking; the interval between completion of injection and the time point that the motor function was firstly recovered was the time of ineffective motor blocking; their difference was the hold time of motor blocking.
as §3, §4

[4] = tested on: sciatic nerve of rats; assay: First local anesthetic experiment of rats: blocking of sciatic nerve, motor function by hindlimb postural extensor thrust (PET)
Procedure: as §5, §6, §7, §8

[5] = rats, 25 mmol/L hydrogel, 0.2 g embedded by surgery near sciatic nerve, lidocaine 2% (84 mmol/L) injected
[6] = rats, 0.2 ml injected close to sciatic nerve, tested drug 5 mmol/L solution (micelle), lidocaine 2% (84 mmol/L), threshold above 60 g
[7] = rats, 0.2 ml injected close to sciatic nerve, tested drug 5 mmol/L solution (micelle), lidocaine 2% aqueous solution (84 mmol/L)
[8] = rats, 0.2 ml injected close to sciatic nerve, tested drug 5 mmol/L solution (micelle), lidocaine 2% (84 mmol/L)

| Structure (SMILES) | Effective local anesthetic time ([1]; rat, in vivo) [min] | The hold time of sensation blocking ([1]; rat, in vivo) [h] | Effective local anesthetic time ([2]; rat, in vivo) [min] | The hold time of sensation blocking ([2]; rat, in vivo) [h] | The hold time of motor blocking ([3]; rat, in vivo) [h] | The hold time of motor blocking ([4]; rat, in vivo) [h] | Effective local anesthetic time [1, 5] [min] | The hold time of sensation blocking [1, 5] [h] | The hold time of sensation blocking [2, 6] [h] | Effective local anesthetic time [2, 7] [min] | The hold time of motor blocking [3, 5] [h] | The hold time of motor blocking [4, 8] [h] |
| --- | --- | --- | --- | --- | --- | --- | --- | --- | --- | --- | --- | --- |
| CCCCCCCCCCCCCCCCOC(=O)OCC[N+](CC)(CC)CC(=O)Nc1c(C)cccc1C [Example29product] | 92 | 86 | 20 | 78 | 84 | 80 | – | – | – | – | – | – |
| CCCC(=O)OC[N+](CC)(CC)CC(=O)Nc1c(C)cccc1C [Example4product] | – | – | 20 | 8 | – | 8 | – | – | – | – | – | – |
| CCCCCCCOC(=O)OCC[N+](CC)(CC)CC(=O)Nc1c(C)cccc1C [Example14product] | 45 | 81 | 15 | 82 | 76 | 70 | – | – | – | – | – | – |
| CCCCCCCCOC(=O)OCC[N+](CC)(CC)CC(=O)Nc1c(C)cccc1C [Example17product] | 63 | 85 | 16 | 82 | 82 | 62 | – | – | – | – | – | – |
| CCCCCCCCOC(=O)OCC[N+](CC)(CC)CC(=O)Nc1c(C)cccc1C [Example16product] | 56 | 82 | 18 | 85 | 82 | 62 | – | – | – | – | – | – |
| CCCCCCCCCOC(=O)OCC[N+](CC)(CC)CC(=O)Nc1c(C)cccc1C [Example21product] | – | – | – | – | – | – | 75 | 88 | 82 | 18 | 79 | 60 |
| CCCCCCCCCCCOC(=O)OCC[N+](CC)(CC)CC(=O)Nc1c(C)cccc1C [Example25product] | 82 | 83 | 20 | 81 | 79 | 80 | – | – | – | – | – | – |
| CCCCCCCCCCCC(=O)OCC[N+](CC)(CC)CC(=O)Nc1c(C)cccc1C [Example9product] | 75 | 98 | 20 | 80 | 80 | 80 | – | – | – | – | – | – |
| CCCCCCCCCOC(=O)OCC[N+](CC)(CC)CC(=O)Nc1c(C)cccc1C [Example18product] | 60 | 83 | 16 | 88 | 79 | 60 | – | – | – | – | – | – |
| CCCCCCCCCCCC(=O)OCC[N+](CC)(CC)CC(=O)Nc1c(C)cccc1C [Example7product] | – | – | – | – | – | – | 60 | 90 | 75 | 20 | 80 | 70 |
| CC[N+](CC)(COC(=O)C(C)(C)C)CC(=O)Nc1c(C)cccc1C [Example5product] | – | – | 18 | 8 | – | 8 | – | – | – | – | – | – |
| CCCCCCCCCCOC(=O)OCC[N+](CC)(CC)CC(=O)Nc1c(C)cccc1C [Example23product] | 80 | 92 | 20 | 82 | 76 | 62 | – | – | – | – | – | – |
| CCCCCCCCCCCCCCCC(=O)OCC[N+](CC)(CC)CC(=O)Nc1c(C)cccc1C [Example10product] | 85 | 80 | 20 | 81 | 72 | 81 | – | – | – | – | – | – |
| CCCCCCCCCCCCOC(=O)OCC[N+](CC)(CC)CC(=O)Nc1c(C)cccc1C [Example27product] | 90 | 83 | 20 | 78 | 76 | 80 | – | – | – | – | – | – |
| CCCCCCCCCCCCCCCC(=O)OCC[N+](CC)(CC)CC(=O)Nc1c(C)cccc1C [Example8product] | – | – | – | – | – | – | 70 | 92 | 73 | 18 | 82 | 70 |
| CCCCCCCCCCCCCCCCOC(=O)OCC[N+](CC)(CC)CC(=O)Nc1c(C)cccc1C [Example30product] | 95 | 87 | 19 | 74 | 86 | 78 | – | – | – | – | – | – |
| CCCCCCCCCCCCCCOC(=O)OCC[N+](CC)(CC)CC(=O)Nc1c(C)cccc1C [Example28product] | 88 | 83 | 20 | 76 | 79 | 79 | – | – | – | – | – | – |
| CCCCCCOC(=O)OCC[N+](CC)(CC)CC(=O)Nc1c(C)cccc1C [Example13product] | 45 | 80 | 19 | 79 | 76 | 79 | – | – | – | – | – | – |
| CCCCCCCCCCCCCCCCCCOC(=O)OCC[N+](CC)(CC)CC(=O)Nc1c(C)cccc1C [Example31product] | 92 | 83 | 20 | 78 | 78 | 80 | – | – | – | – | – | – |
| CCCCCCCCCCOC(=O)OCC[N+](CC)(CC)CC(=O)Nc1c(C)cccc1C [Example24product] | 78 | 87 | 20 | 82 | 79 | 75 | – | – | – | – | – | – |
| CCCCCCCCCOC(=O)OCC[N+](CC)(CC)CC(=O)Nc1c(C)cccc1C [Example22product] | – | – | – | – | – | – | 78 | 95 | 81 | 18 | 87 | 61 |
| CCOC(=O)OCC[N+](CC)(CC)CC(=O)Nc1c(C)cccc1C [Example11product] | – | – | 20 | 82 | – | 82 | – | – | – | – | – | – |
| CCCCOC(=O)OCC[N+](CC)(CC)CC(=O)Nc1c(C)cccc1C [Example12product] | – | – | 20 | 80 | – | 80 | – | – | – | – | – | – |
| CC[N+](CC)(CCOC(C)=O)CC(=O)Nc1c(C)cccc1C [Example6product] | – | – | – | – | – | – | – | – | 72 | 20 | – | 72 |

— patent US10011562B2, “Long-chain dimethylaniline derivative compounds, their preparation methods, self-assembled textures, and uses thereof” (WEST CHINA HOSPITAL, SICHUAN UNIVERSITY, priority 2014, dated 2018)
